Structures can show the parent of a compound that is named as a salt.
Experiments:
NLRP3 [1] = target: T1, NLRP3 (Homo sapiens, UniProt Q96P20); test: THP-1 cells pyroptosis assay (LPS priming, nigericin, resazurin readout); assay type: cell-based; set-up: Seed THP-1 cells (25,000 cells/well) containing 1.0 μg/ml LPS; host or cells: THP-1 cells, LPS-primed, nigericin-stimulated; settings: 1 μg/ml LPS, 3 h compound, 5 μM nigericin 1 hr
Protocol: THP-1 cells (ATCC #TIB-202) were grown in RPMI containing L-glutamine (Gibco #11835) supplemented with 1 mM sodium pyruvate (Sigma #S8636) and penicillin (100 units/ml)/streptomycin (0.1 mg/ml) (Sigma #P4333) in 10% Fetal Bovine Serum (FBS) (Sigma #F0804). The cells were routinely passaged and grown to confluency (˜10^6 cells/ml). On the day of the experiment, THP-1 cells were harvested and resuspended into RPMI medium (without FBS). The cells were then counted and viability (>90%) checked by Trypan blue (Sigma #T8154). Appropriate dilutions were made to give a concentration of 625,000 cells/ml. To this diluted cell solution was added LPS (Sigma #L4524) to give a 1 μg/ml Final Assay Concentration (FAC). 40 μl of the final preparation was aliquoted into each well of a 96-well plate. The plate thus prepared was used for compound screening.
The following method step-by-step assay was followed for compound screening. • 1. Seed THP-1 cells (25,000 cells/well) containing 1.0 μg/ml LPS in 40 μl of RPMI medium (without FBS) in 96-well, black walled, clear bottom cell culture plates coated with poly-D-lysine (VWR #734-0317) • 2. Add 5 μl compound (8 points half-log dilution, with 10 μM top dose) or vehicle (DMSO 0.1% FAC) to the appropriate wells • 3. Incubate for 3 hours at 37° C., 5% CO2 • 4. Add 5 μl nigericin (Sigma #N7143) (FAC 5 μM) to all wells • 5. Incubate for 1 hr at 37° C., 5% CO2 • 6. At the end of the incubation period, spin plates at 300×g for 3 mins and remove supernatant • 7. Then add 50 μl of resazurin (Sigma #R7017) (FAC 100 μM resazurin in RPMI medium without FBS) and incubate plates for a further 1-2 hours at 37° C. and 5% CO2 • 8. Plates were read in an Envision reader at Ex 560 nm and Em 590 nm • 9. IC50 data is fitted to a non-linear regression equation (log inhibitor vs response-variable slope 4-parameters)

NLRP3 [2] = target: T1, NLRP3; test: Human whole blood IL-1β release assay (LPS, nigericin, AlphaLisa); assay type: cell-based; set-up: Plate out 80 μl of whole blood containing 1 μg/ml of LPS; from tissue; host or cells: human whole blood from healthy donors, LPS-primed, nigericin-stimulated; settings: 1 μg/ml LPS, 3 h compound, 10 μM nigericin 1 hr, IL-1β in supernatant, read-out: Human whole blood IB-1β Assay IC50
Protocol: For systemic delivery, the ability to inhibit NLRP3 when the compounds are present within the bloodstream is of great importance. For this reason, the NLRP3 inhibitory activity of a number of compounds in human whole blood was investigated in accordance with the following protocol.
Human whole blood in Li-heparin tubes was obtained from healthy donors from a volunteer donor panel. • 1. Plate out 80 μl of whole blood containing 1 μg/ml of LPS in 96-well, clear bottom cell culture plate (Corning #3585) • 2. Add 10 μl compound (8 points half-log dilution with 10 μM top dose) or vehicle (DMSO 0.10% FAC) to the appropriate wells • 3. Incubate for 3 hours at 37° C., 5% CO2 • 4. Add 10 μl nigericin (Sigma #N7143) (10 μM FAC) to all wells • 5. Incubate for 1 hr at 37° C., 5% CO2 • 6. At the end of the incubation period, spin plates at 300×g for 5 mins to pellet cells and remove 20 μl of supernatant and add to 96-well v-bottom plates for IL-1β analysis (note: these plates containing the supernatants can be stored at −80° C. to be analysed at a later date) • 7. IL-1β was measured according to the manufacturer protocol (Perkin Elmer-AlphaLisa IL-1 Kit AL220F-5000) • 8. IC50 data is fitted to a non-linear regression equation (log inhibitor vs response-variable slope 4-parameters)

T1 sequence (Q96P20 whole entry): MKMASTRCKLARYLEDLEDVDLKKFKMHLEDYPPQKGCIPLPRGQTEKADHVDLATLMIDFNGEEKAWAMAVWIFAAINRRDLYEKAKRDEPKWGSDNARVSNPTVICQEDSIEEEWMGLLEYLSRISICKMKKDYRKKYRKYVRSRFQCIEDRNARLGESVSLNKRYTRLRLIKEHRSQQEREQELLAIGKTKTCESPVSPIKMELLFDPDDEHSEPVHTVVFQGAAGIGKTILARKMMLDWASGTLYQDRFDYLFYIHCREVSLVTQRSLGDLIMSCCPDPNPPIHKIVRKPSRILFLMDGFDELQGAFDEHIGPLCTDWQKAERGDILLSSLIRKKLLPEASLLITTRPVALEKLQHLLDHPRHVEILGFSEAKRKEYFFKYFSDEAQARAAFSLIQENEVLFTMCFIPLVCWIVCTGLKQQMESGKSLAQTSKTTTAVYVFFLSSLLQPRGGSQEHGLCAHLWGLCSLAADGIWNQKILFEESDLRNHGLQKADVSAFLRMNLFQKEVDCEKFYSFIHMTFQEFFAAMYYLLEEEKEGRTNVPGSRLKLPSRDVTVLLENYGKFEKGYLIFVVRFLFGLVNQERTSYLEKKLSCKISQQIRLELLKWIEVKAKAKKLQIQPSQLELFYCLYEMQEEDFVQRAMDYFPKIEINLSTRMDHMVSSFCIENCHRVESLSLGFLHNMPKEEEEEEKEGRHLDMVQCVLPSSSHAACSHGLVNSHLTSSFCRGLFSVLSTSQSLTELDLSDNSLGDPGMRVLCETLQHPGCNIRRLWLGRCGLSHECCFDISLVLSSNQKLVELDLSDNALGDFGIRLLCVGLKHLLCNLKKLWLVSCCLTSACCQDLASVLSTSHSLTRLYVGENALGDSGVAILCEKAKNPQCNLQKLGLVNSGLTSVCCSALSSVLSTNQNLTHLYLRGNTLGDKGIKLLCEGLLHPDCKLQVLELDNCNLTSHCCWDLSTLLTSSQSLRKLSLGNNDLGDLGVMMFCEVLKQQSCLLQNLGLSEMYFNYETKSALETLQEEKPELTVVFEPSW

| SMILES | IC50 (NLRP3 [1]) | IC50 (NLRP3 [2]) |
| --- | --- | --- |
| CCN1CCCC(Nc2nnc(-c3ccc(C(F)(F)F)cc3)c3ccsc23)C1 (racemic) [Example 3, (rac)-N-(1-ethyl-3-piperidyl)-4-[4-(trifluoromethyl)phenyl]thieno[2,3-d]pyridazin-7-amine] | 57.2 nM | 0.091 nM |
| CCN1CCC[C@@H](Nc2nnc(-c3ccc(C(F)(F)F)cc3O)c3c2cnn3C)C1 [Example 6, 2-[4-[[(3R)-1-Ethyl-3-piperidyl]amino]-1-methyl-pyrazolo[3,4-d]pyridazin-7-yl]-5-(trifluoromethyl)phenol; 2,2,2-trifluoroacetic acid] | 3.5 nM | 0.028 nM |
| CCN1CCC[C@@H](Nc2nnc(-c3ccc(C(F)(F)F)cc3O)c3occc23)C1 [Example 7, 2-[4-[[(3R)-1-ethyl-3-piperidyl]amino]furo[2,3-d]pyridazin-7-yl]-5-(trifluoromethyl)phenol] | 9.1 nM | 0.592 nM |
| CCN1CCCC(Nc2nnc(-c3ccc(C(F)(F)F)cc3O)c3sccc23)C1 (racemic) [Example 2, (rac)-2-[4-[(1-Ethyl-3-piperidyl)amino]thieno[2,3-d]pyridazin-7-yl]-5 (trifluoromethyl)phenol; formic acid] | 3.5 nM | 0.349 nM |
| CCN1CCC[C@@H](Nc2nnc(-c3ccc(C(F)(F)F)cc3O)c3c2ccn3C)C1 [Example 5-HCl, 2-[4-[[(3R)-1-Ethyl-3-piperidyl]amino]-1-methyl-pyrrolo[2,3-d]pyridazin-7-yl]-5-(trifluoromethyl)phenol; hydrochloride] | 11.6 nM | – |
| CCN1CCC[C@@H](Nc2nnc(-c3ccc(C(F)(F)F)cc3O)c3cnn(C)c23)C1 [Example 9, 2-[7-[[(3R)-1-Ethyl-3-piperidyl]amino]-1-methyl-pyrazolo[3,4-d]pyridazin-4-yl]-5-(trifluoromethyl)phenol] | 2.7 nM | 0.217 nM |
| CCN1CCCC(Nc2nnc(-c3ccc(C(F)(F)F)cc3O)c3ccsc23)C1 (racemic) [Example 1, (rac)-2-[7-[(1-Ethyl-3-piperidyl)amino]thieno[2,3-d]pyridazin-4-yl]-5(trifluoromethyl)phenol; formic acid] | 1.6 nM | 0.088 nM |
| CCN1CCC[C@@H](Nc2nnc(-c3ccc(C(F)(F)F)cc3O)c3c2ccn3C)C1 [Example 5-TFA, 2-[4-[[(3R)-1-ethyl-3-piperidyl]amino]-1-methyl-pyrrolo[2,3-d]pyridazin-7-yl]-5-(trifluoromethyl)phenol; 2,2,2-trifluoroacetic acid] | 12.4 nM | 0.028 nM |
| CCN1CCCC(Nc2nnc(-c3ccc(C(F)(F)F)cc3)c3sccc23)C1 (racemic) [Example 4, (rac)-N-(1-ethyl-3-piperidyl)-7-[4-(trifluoromethyl)phenyl]thieno[2,3-d]pyridazin-4-amine] | 52.4 nM | 0.328 nM |

Now from value to compound:

| IC50 (NLRP3 [1]) | IC50 (NLRP3 [2]) | SMILES |
| --- | --- | --- |
| 2.3 nM | 0.024 nM | CCN1CCC[C@@H](Nc2nnc(-c3ccc(OC(F)(F)F)cc3O)c3c2cnn3C)C1 [Example 10, 2-[4-[[(3R)-1-Ethyl-3-piperidyl]amino]-1-methyl-pyrazolo[3,4-d]pyridazin-7-yl]-5-(trifluoromethoxy)phenol; 2,2,2-trifluoroacetic acid] |
| 2.2 nM | 0.014 nM | CCN1CCC[C@@H](Nc2nnc(-c3ccc(Cl)cc3O)c3c2cnn3C)C1 [Example 12, 5-Chloro-2-[1-methyl-4-[[(3R)-1-ethyl-3-piperidyl]amino]pyrazolo[3,4-d]pyridazin-7-yl]phenol; 2,2,2-trifluoroacetic acid] |
| 76 nM | – | Cn1ncc2c(N[C@@H]3CCCC[C@H]3O)nnc(-c3ccc(C(F)(F)F)cc3O)c21 [Example 11, 2-[4-[[(1R,2R)-2-Hydroxycyclohexyl]amino]-1-methyl-pyrazolo[3,4-d]pyridazin-7-yl]-5-(trifluoromethyl)phenol; 2,2,2-trifluoroacetic acid] |
| 18 nM | 2.6 nM | CCN1CCC[C@@H](Nc2nnc(-c3ccc(C(F)(F)F)cc3O)c3onc(C)c23)C1 [Example 13, 2-[4-[[(3R)-1-Ethyl-3-piperidyl]amino]-3-methyl-isoxazolo[4,5-d]pyridazin-7-yl]-5-(trifluoromethyl)phenol] |
| 46.6 nM | 0.3 nM | CCN1C[C@@H](O)C[C@@H](Nc2nnc(-c3ccc4c(c3O)CCO4)c3c2cnn3C)C1 [Example 19, (3S,5R)-1-Ethyl-5-[[7-(4-hydroxy-2,3-dihydrobenzofuran-5-yl)-1-methyl-pyrazolo[3,4-d]pyridazin-4-yl]amino]piperidin-3-ol] |
| 362 nM | – | Cn1ncc2c(N[C@H]3C[C@@](C)(O)C3)nnc(-c3ccc(C(F)(F)F)cc3O)c21 [Example 16, 2-[4-[(3-Hydroxy-3-methyl-cyclobutyl)amino]-1-methyl-pyrazolo[3,4-d]pyridazin-7-yl]-5-(trifluoromethyl)phenol] |
| 8.6 nM | 0.232 nM | CCN1CCC[C@@H](Nc2nnc(-c3c(O)cc(C(F)(F)F)cc3F)c3c2cnn3C)C1 [Example 15, 2-[4-[[(3R)-1-Ethyl-3-piperidyl]amino]-1-methyl-pyrazolo[3,4-d]pyridazin-7-yl]-3-fluoro-5-(trifluoromethyl)phenol] |
| 2.2 nM | 0.033 nM | CCN1CCC[C@@H](Nc2nnc(-c3ccc4c(c3O)CC4)c3c2cnn3C)C1 [Example 18, 3-[4-[[(3R)-1-Ethyl-3-piperidyl]amino]-1-methyl-pyrazolo[3,4-d]pyridazin-7-yl]bicyclo[4.2.0]octa-1(6),2,4-trien-2-ol] |
| 3.6 nM | 0.015 nM | CCN1CCC[C@@H](Nc2nnc(-c3ccc4c(c3O)CCO4)c3c2cnn3C)C1 [Example 17, 5-[4-[[(3R)-1-Ethyl-3-piperidyl]amino]-1-methyl-pyrazolo[3,4-d]pyridazin-7-yl]-2,3-dihydrobenzofuran-4-ol] |
| 7.8 nM | 0.111 nM | CCN1CCC[C@@H](Nc2nnc(-c3c(C)cc(C(F)(F)F)cc3O)c3[nH]ncc23)C1 [Example 14, 2-[4-[[(3R)-1-ethyl-3-piperidyl]amino]-1H-pyrazolo[3,4-d]pyridazin-7-yl]-3-methyl-5-(trifluoromethyl)phenol; 2,2,2-trifluoroacetic acid] |

Source: patent US20240409553A1, “HETEROCYCLIC NLRP3 INHIBITORS” (Hoffmann-La Roche Inc., priority 2021, published 2024)
